Data published in patent publication US20110071158A1, “NEW COMPOUNDS” (BOEHRINGER INGELHEIM INTERNATIONAL GMBH, priority 2009, published 2011).

Assays:
Format in all cases: biochemical
PTK2 enzyme [1] = molecular target: T1, PTK2 enzyme (Homo sapiens, UniProt Q05397); experiment: PTK2 enzyme test, Assay 1 (DELFIA, poly-Glu-Tyr substrate, antibody PT60); settings: Assay 1 (values without *); 1 h pre-incubation, 2% DMSO
T1 construct: purchased Invitrogen PV3832
Summary of the method: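 Active PTK2 (0.01 µg/well) preincubated 1 h at RT with compound (duplicates, 2% DMSO final), then reacted 1 h at RT with poly(Glu,Tyr) 4:1 plus biotinylated poly(Glu,Tyr) and an ATP mix containing 50 μM ATP. EDTA-stopped, streptavidin-captured product detected by Eu-PT60 anti-phosphotyrosine DELFIA; IC50 by variable-Hill sigmoid fit.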

[2] = molecular target: T2, Xenopus laevis Aurora B/INCENP complex (Xenopus laevis, UniProt Q6DE08); experiment: Aurora-B kinase assay (radioactive enzyme inhibition)
T2 construct: equipped at the N-terminal position with a GST tag (amino acids 60-361); GST (N, cleaved yes); made in house; host or cells: E. coli BL21 (DE3)
T2 sequence (Q6DE08 60-361): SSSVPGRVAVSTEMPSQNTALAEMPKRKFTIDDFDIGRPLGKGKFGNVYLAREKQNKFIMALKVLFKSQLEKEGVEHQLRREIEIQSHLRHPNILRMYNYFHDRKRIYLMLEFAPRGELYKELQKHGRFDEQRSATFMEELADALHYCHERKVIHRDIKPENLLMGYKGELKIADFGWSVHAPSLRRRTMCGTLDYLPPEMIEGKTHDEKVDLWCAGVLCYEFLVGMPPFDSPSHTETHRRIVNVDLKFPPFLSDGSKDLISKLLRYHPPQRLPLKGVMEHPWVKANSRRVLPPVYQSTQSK
T2 sequence (O13024 790-847 partner): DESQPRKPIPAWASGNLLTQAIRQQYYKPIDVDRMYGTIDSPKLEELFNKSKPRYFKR
From the text: A radioactive enzyme inhibition assay was developed using E. coli-expressed recombinant Xenopus laevis Aurora B wild-type protein equipped at the N-terminal position with a GST tag (amino acids 60-361) in a complex with Xenopus laevis INCENP (amino acids 790-847), which is obtained from bacteria and purified. In equivalent manner a Xenopus laevis Aurora B mutant (G96V) in a complex with Xenopus laevis INCENP^790-847 may also be used.
The coding sequence for Aurora-B^60-361 from Xenopus laevis is cloned into a modified version of pGEX-6T (Amersham Biotech) via BamHI and SalI cutting sites. The vector contains two cloning cassettes which are separated by a ribosomal binding site, allowing bi-cistronic expression. In this configuration Xenopus laevis Aurora B is expressed by the first cassette, and the Xenopus laevis INCENP^790-847 is expressed by the second cassette. The resulting vector is pAUB-IN^847.
First of all the E. coli strain BL21 (DE3) is co-transformed with pUBS520 helper plasmid and pAUB-IN^847, after which protein expression is induced using 0.3 mM IPTG at an OD600 of 0.45-0.7. The expression is then continued for approx. 12-16 h at 23-25° C. with agitation.
The bacteria are then removed by centrifuging and the pellet is lysed in lysis buffer (50 mM Tris/Cl pH 7.6, 300 mM NaCl, 1 mM DTT, 1 mM EDTA, 5% glycerol, Roche Complete Protease Inhibitor tablets) using ultrasound, using 20-30 mL lysis buffer per litre of E. coli culture. The lysed material is freed from debris by centrifugation (12000 rpm, 45-60 min, JA20 rotor). The supernatant is incubated with […] of equilibrated GST Sepharose Fast Flow (Amersham Biosciences) per litre of E. coli culture for 4-5 h at 4° C. Then the column material is washed with 30 volumes of lysis buffer and then equilibrated with 30 volumes of cleavage buffer (50 mM Tris/Cl pH 7.6, 150 mM NaCl, 1 mM DTT, 1 mM EDTA). To cleave the GST tag from Aurora B, 10 units of Prescission Protease (Amersham Biosciences) are used per milligram of substrate and the mixture is incubated for 16 h at 4° C. The supernatant which contains the cleavage product is loaded onto a 6 mL Resource Q column (Amersham Biosciences) equilibrated with ion exchange buffer (50 mM Tris/Cl pH 7.6, 150 mM NaCl, 1 mM DTT, 1 mM EDTA). The Aurora B/INCENP complex is caught as it flows through, then concentrated and loaded onto a Superdex 200 size exclusion chromatography (SEC) column equilibrated with SEC buffer (10 mM Tris/Cl pH 7.6, 150 mM NaCl, 1 mM DTT, 1 mM EDTA). Fractions which contain the AuroraB/INCENP complex are collected and concentrated using Vivaspin concentrators (molecular weight exclusion 3000-5000 Da) to a final concentration of 12 mg/mL. Aliquots (e.g. 240 ng/μL) for kinase assays are transferred from this stock solution into freezing buffer (50 mM Tris/Cl pH 8.0, 150 mM NaCl, 0.1 mM EDTA, 0.03% Brij-35, 10% glycerol, 1 mM DTT) and stored at −80° C.
Test substances are placed in a polypropylene dish (96 wells, Greiner #655 201), in order to cover a concentration frame of 10 μM-0.0001 μM. The final concentration of DMSO in the assay is 5%. 30 μL of protein mix (50 mM Tris/Cl pH 7.5, 25 mM MgCl2, 25 mM NaCl, 167 μM ATP, 10 ng Xenopus laevis Aurora B/INCENP complex in freezing buffer) are pipetted into the 10 μl of test substance provided in 25% DMSO and this is incubated for 15 min at RT. Then 10 μL of peptide mix (100 mM Tris/Cl pH 7.5, 50 mM MgCl2, 50 mM NaCl, 5 μM NaF, 5 μM DTT, 1 μCi gamma-P33-ATP [Amersham], 50 μM substrate peptide [biotin-EPLERRLSLVPDS or multimers thereof, or biotin-EPLERRLSLVPKM or multimers thereof, or biotin-[…]]) are added. The reaction is incubated for 75 min (ambient temperature) and stopped by the addition of 180 μL of 6.4% trichloroacetic acid and incubated for 20 min on ice. […]

PTK2 enzyme [3] = molecular target: T1, PTK2 enzyme; experiment: PTK2 enzyme test, Assay 2 (DELFIA, poly-Glu-Tyr substrate, antibody PT66); settings: Assay 2 (values marked *); 1 h pre-incubation, 0.5% DMSO
From the text: This test uses active PTK2 enzyme (Invitrogen Code PV3832) and poly-Glu-Tyr (4:1, Sigma P-0275) as the kinase substrate. The kinase activity is detected by means of the phosphorylation of the substrate in a DELFIA™ assay. The phosphorylated substrate is detected with the europium-labelled phosphotyrosine antibody PT66 (Perkin Elmer, No.: AD0040).
In order to determine concentration-activity curves with PTK2-inhibitors the compounds are serially diluted first of all in 10% DMSO/H2O and then in kinase dilution buffer (20 mM TRIS/HCl pH 7.5, 0.1 mM EDTA, 0.1 mM EGTA, 0.286 mM sodium orthovanadate, 10% glycerol with the addition of freshly prepared BSA (fraction V, 1 mg/mL) and DTT (1 mM)) and 10 μL of each dilution are dispensed per well in a 96-well microtitre plate (clear U-shaped base plate, Greiner No. 650101) (the inhibitors are tested in duplicates) and mixed with 10 μL/well of PTK2 kinase (0.01 μg/well). PTK2 kinase is diluted accordingly beforehand with kinase dilution buffer. The diluted PTK2 inhibitor and the PTK2 kinase are pre-incubated for 1 h at RT and shaken at 500 revolutions per min. Then 10 μL/well poly-Glu-Tyr substrate (25 μg/well poly-Glu-Tyr, 0.05 μg/well biotinylated poly-Glu-Tyr dissolved in 250 mM TRIS/HCl pH 7.5, 9 mM DTT) are added. The reaction is started by the addition of 20 μL of ATP Mix (30 mM TRIS/HCl pH 7.5, 0.02% Brij, 0.2 mM sodium orthovanadate, 10 mM magnesium acetate, 0.1 mM EGTA, 1× phosphatase inhibitor cocktail 1 (Sigma, No.: P2850), 50 μM ATP (Sigma, No.: A3377; 15 mM stock solution))—the final concentration of DMSO is 0.5%. After 1 h kinase reaction (the plates are shaken at 500 rpm), the reaction is stopped by the addition of 12 μL/well of 100 mM EDTA, pH 8, and shaken for a further 5 min at RT (500 U/min). 55 μL of the reaction mixture are transferred into a streptavidin plate (Strepta Well High Bind (transparent, 96-well) made by Roche, No.: 11989685001) and incubated for 1 h at RT (shaking at 500 rpm). Then the microtitre plate is washed five times with 200 μL/well D-PBS (Invitrogen, No. 14190). 100 μL of a solution containing DELFIA Eu-N1 Anti-Phosphotyrosine PT66 antibody (Perkin Elmer, No.: AD0040, diluted 1:9000 in DELFIA test buffer (Perkin Elmer, No.: 1244-111)) is then added and it is incubated for 1 h at RT (shaking at 500 rpm). Then the plate is washed five times with 200 μL/well DELFIA washing buffer (Perkin Elmer, No.: 1244-114), 200 μL/well strengthening solution (Perkin Elmer, No.: 1244-105) is added and the whole is incubated for 10 min at RT (shaking at 300 rpm).
The time-delayed europium fluorescence is then measured in a microtitre plate reader (Victor, Perkin Elmer). The positive control consists of wells that contain solvent (0.5% DMSO in test buffer) and display uninhibited kinase activity. Wells that contain test buffer instead of enzyme act as a control for the background kinase activity.
The IC50 values are determined from concentration-activity analyses by iterative calculation using a sigmoid curve analysis algorithm (FIFTY, based on Graph PAD Prism Version 3.03) with a variable Hill coefficient.

T1 sequence (Q05397 whole entry): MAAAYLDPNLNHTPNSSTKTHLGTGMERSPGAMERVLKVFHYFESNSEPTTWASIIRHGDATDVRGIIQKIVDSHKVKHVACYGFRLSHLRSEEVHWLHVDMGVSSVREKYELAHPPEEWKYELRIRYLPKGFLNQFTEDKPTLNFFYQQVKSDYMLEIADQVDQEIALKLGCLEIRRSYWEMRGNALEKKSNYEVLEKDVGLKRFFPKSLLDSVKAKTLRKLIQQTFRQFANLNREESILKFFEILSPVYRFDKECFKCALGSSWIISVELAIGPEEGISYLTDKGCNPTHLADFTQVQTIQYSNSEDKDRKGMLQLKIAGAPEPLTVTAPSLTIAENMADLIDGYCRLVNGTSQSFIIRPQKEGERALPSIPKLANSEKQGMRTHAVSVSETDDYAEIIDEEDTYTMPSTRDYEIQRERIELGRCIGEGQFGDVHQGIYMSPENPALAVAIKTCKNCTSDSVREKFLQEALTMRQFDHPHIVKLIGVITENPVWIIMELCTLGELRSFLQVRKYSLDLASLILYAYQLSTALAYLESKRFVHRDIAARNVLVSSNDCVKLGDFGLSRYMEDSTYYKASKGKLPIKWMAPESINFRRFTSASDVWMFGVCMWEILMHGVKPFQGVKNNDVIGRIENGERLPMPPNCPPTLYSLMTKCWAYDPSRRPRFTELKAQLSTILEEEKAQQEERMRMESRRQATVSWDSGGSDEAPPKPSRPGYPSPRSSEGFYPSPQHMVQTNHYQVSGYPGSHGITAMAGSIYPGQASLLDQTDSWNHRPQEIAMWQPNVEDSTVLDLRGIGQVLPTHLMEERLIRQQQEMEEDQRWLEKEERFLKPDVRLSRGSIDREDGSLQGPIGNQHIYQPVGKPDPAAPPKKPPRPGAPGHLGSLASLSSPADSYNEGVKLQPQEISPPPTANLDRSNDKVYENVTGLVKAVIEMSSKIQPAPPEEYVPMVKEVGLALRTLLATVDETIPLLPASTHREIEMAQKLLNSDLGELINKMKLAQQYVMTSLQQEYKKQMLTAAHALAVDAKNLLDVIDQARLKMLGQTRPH

| IC50 (PTK2 enzyme [1]) | IC50 [2] | IC50 (PTK2 enzyme [3]) | Structure (SMILES) |
| --- | --- | --- | --- |
| 0.9 nM | 265 nM | – | COc1cc(C(=O)NC2CCN(C)CC2)ccc1Nc1ncc(C(F)(F)F)c(N[C@@H]2CCC[C@H]2NS(C)(=O)=O)n1 [Example I-126, 4-[4-((1R,2R)-2-methanesulphonylamino-cyclopentylamino)-5-trifluoromethyl-pyrimidin-2-ylamino]-3-methoxy-N-(1-methyl-piperidin-4-yl)-benzamide] |
| – | 417 nM | 0.53 nM | COc1cc(C(=O)NC2CCN(C)CC2)c(F)cc1Nc1ncc(Cl)c(N[C@@H]2CCC[C@H]2N(C)S(C)(=O)=O)n1 [Example I-127, 4-{5-chloro-4-[(1R,2R)-2-(methanesulphonyl-methyl-amino)-cyclopentylamino]-pyrimidin-2-ylamino}-2-fluoro-5-methoxy-N-(1-methyl-piperidin-4-yl)-benzamide] |
| 0.79 nM | > 5000 nM | – | COc1cc(C(=O)NC2CCN(C)CC2)c(Cl)cc1Nc1ncc(C(F)(F)F)c(N[C@@H]2CCCC[C@H]2N(C)S(C)(=O)=O)n1 [Example I-128] |
| – | 1010 nM | 0.29 nM | COc1cc(C(=O)NC2CCN(C)CC2)c(Cl)cc1Nc1ncc(C(F)(F)F)c(N[C@@H]2CCC[C@H]2N(C)S(C)(=O)=O)n1 [Example I-131] |
| 0.91 nM | 2190 nM | – | COCCNC(=O)c1cc(OC)c(Nc2ncc(C(F)(F)F)c(N[C@@H]3CCCC[C@H]3N(C)S(C)(=O)=O)n2)cc1C [Example I-133] |
| – | 778 nM | 0.5 nM | COc1cc(N2CCNCC2)c(Cl)cc1Nc1ncc(C(F)(F)F)c(N[C@@H]2CCC[C@H]2N(C)S(C)(=O)=O)n1 [Example I-134] |
| 1 nM | 1030 nM | – | CNC(=O)c1cc(OC)c(Nc2ncc(C(F)(F)F)c(N[C@@H]3CCCC[C@H]3N(C)S(C)(=O)=O)n2)cc1Cl [Example I-135] |
| – | 1070 nM | 0.44 nM | CNC(=O)c1cc(OC)c(Nc2ncc(C(F)(F)F)c(N[C@@H]3CCCC[C@H]3NS(C)(=O)=O)n2)cc1Cl [Example I-137] |
| – | 422 nM | 0.41 nM | C#CCNC(=O)c1cc(OC)c(Nc2ncc(C(F)(F)F)c(N[C@@H]3CCC[C@H]3NS(C)(=O)=O)n2)cc1C [Example I-138] |
| – | > 5000 nM | 0.86 nM | COc1cc(N2CCN(C(C)(C)C)CC2)c(C)cc1Nc1ncc(C(F)(F)F)c(N[C@@H]2CCC[C@H]2N(C)S(C)(=O)=O)n1 [Example I-140] |
| – | 311 nM | 0.5 nM | COc1cc(C(=O)NC2CCN(C)CC2)c(F)cc1Nc1ncc(Br)c(N[C@@H]2CCC[C@H]2N(C)S(C)(=O)=O)n1 [Example I-142] |
| – | > 9000 nM | 0.76 nM | COc1ccc(C(=O)NCCN(C)C)cc1Nc1ncc(C(F)(F)F)c(N[C@@H]2CCCC[C@H]2N(C)S(C)(=O)=O)n1 [Example I-144] |
| – | 413 nM | 0.58 nM | COc1cc(NC(=O)[C@H]2CCCN2C)ccc1Nc1ncc(C(F)(F)F)c(N[C@@H]2CCCC[C@H]2N(C)S(C)(=O)=O)n1 [Example I-146] |
| 0.9 nM | 332 nM | – | COc1cc(CN(C)C)ccc1Nc1ncc(C(F)(F)F)c(N[C@@H]2CCCC[C@H]2N(C)S(C)(=O)=O)n1 [Example I-147] |
| 0.95 nM | 707 nM | – | COc1cc(CN2CCN(C)CC2)ccc1Nc1ncc(C(F)(F)F)c(N[C@@H]2CCCC[C@H]2N(C)S(C)(=O)=O)n1 [Example I-148] |
| – | 1590 nM | 0.41 nM | CNC(=O)c1cc(OC)c(Nc2ncc(C(F)(F)F)c(N[C@@H]3CCCC[C@H]3NS(C)(=O)=O)n2)cc1C [Example I-152] |
| – | > 10000 nM | 0.69 nM | CCc1cc(Nc2ncc(C(F)(F)F)c(N[C@@H]3CCC[C@H]3N(C)S(C)(=O)=O)n2)c(OC)cc1N1CCNCC1 [Example I-153] |
| – | 245 nM | 0.93 nM | COc1cc(NC(=O)C2CCN(C)CC2)ccc1Nc1ncc(C(F)(F)F)c(N[C@@H]2CCCC[C@H]2N(C)S(C)(=O)=O)n1 [Example I-155] |
| 1 nM | 3360 nM | – | COc1cc(C(=O)NC2CCN(C)CC2)c(C)cc1Nc1ncc(Cl)c(N[C@@H]2CCCC[C@H]2N(C)S(C)(=O)=O)n1 [Example I-164] |
| 4 nM | 167 nM | – | COc1cc(NC(C)=O)ccc1Nc1ncc(C(F)(F)F)c(N[C@@H]2CCCC[C@H]2N(C)S(C)(=O)=O)n1 [Example I-165] |
